Reference: patent US4510144A, “Methods of imparting immunomodulating activity with dihydrothiazolo purine derivatives” (Newport Pharmaceuticals International, priority 1982, dated 1985)

Key:
[1] = system: antibody production to sheep red blood cells (SRBC); test: antigen (SRBC) dependent antibody synthesis in vivo (IgM plaques); set-up: species or system Balb/C mice; details: for #Ig M plaques (x ± S.E.): saline control 21 ± 1.1; for % change from control, Ig M plaques: Table VIII; for % change from control, antibody response to SRBC: Table X, *P ≤ 0.001 where starred
Protocol: (3) Antigen (sheep red blood cell, SRBC) dependent antibody synthesis (in vivo)
There is set forth below the standard procedure which should be modified according to the solubility and other properties of the particular compound tested.
1. A solution containing 500 μg/ml NPT is prepared by adding a preweighed amount of the drup powder to sterile BPS (phosphate buffered saline) and sonicating the solution for 30 minutes.
1. NPT drug solution is made by dissolving 500 μg NPT per mil PBS.
1. A 1.4% suspension of agarose in PBS (7 g in 500 ml) is autoclaved for 15 min.
1. Mice are immunized as follows: sheep blood (sheep #23) is received weekly from Hyland labs. It is asceptically collected in two volumes of Alseviers to one volume of blood.
6. The cell count is determined and the stock solution is diluted to 4×10^7 cells/ml. This final suspension is used for immunization.
7. Each mouse is immunized by i.v. injection into the lateral tail vein (warmed in a 50° C. water bath for veinous dilation) with 0.1 ml SRBC (sheep red blood cell) suspensions; the final concentration of SRBC's is 4×10^6 per mouse.
1. Mice are treated by i.p. injection on days […], 1, 2, and 3. A syringe (1 cc) is fitted with a one-half inch, 26 gauge needle. The needle is introduced at a 45° angle along the right side of the linea alba. A 0.2 ml volume is given to both drug and control treated groups.
2. Drug groups are given 0.2 ml of a desired concentration NPT solution which, for a 20 g mouse, is […].
1. Spleens are removed asceptically and placed individually in Falcon #2025 tissue culture tubes containing 3 ml MEM. The tubes are then stored on ice.
2. Spleens are homogenized in the same tube with a teflon pestle attached to a G. K. Heller variable speed reversible motor connected with a G. K. Heller GT-21 motor controller setting #6.
6. The cell count is obtained and the stock suspension is diluted to 1×10^7 cells/ml. The Coulter counter threshhold is set at 10. Red cells are lysed with three drops of Zap isoton.
1. Thirty-five hundredths gram agarose and 0.53 grams MEM powder are placed into an Erlenmeyer flask. Fifty ml of distilled H2 O is then added to the flask.
1. Five ml sheep blood (same batch as used for immunization) is washed three times in PBS using an IEC Clinical Standard Centrifuge, speed #4 (2800 RPM) for 10 min.
1. Agar plates are removed from refrigerator and allowed to warm to room temperature. They are labeled in triplicate for each experimental group.
2. Agar-filled tubes are removed from the water bath. One-tenth of the 10% SRBC's and 0.1 ml spleen cell suspension are added to each agar tube. The tubes are agitated on a Vortex mixer.
3. The contents of the tubes are poured immediately into agar base plates and swirled until a smooth layer is formed. The plates are placed on a level surface until the agar solidifies.
4. The plates are incubated at 37° C. in a humidified atmosphere of 5% CO2 and 95% air for 90 min.
6. Plates are removed from incubator and 1 ml of the diluted complement is added to each plate.
7. Plates are then incubated another 30-45 minutes at 37° C. Plates are then removed from incubator and counted using oblique light.

[2] = system: lymphocytes from normal volunteers (active E-rosettes); test: enhancement of active E-rosettes, lymphocytes from normal volunteers in vitro; type: cell-based; details: for % E-rosettes (active): control 37
Protocol: The effects of NPT 16416 on stimulating formation of active rosettes when incubated with lymphocytes in vitro from normal volunteers is described in Table XII. It is important to note that 5×10^-8M concentration of NPT 16416 is capable of producing a 36.5% enhancement of Active E-Rosettes. The enhancement of Active E-Rosettes is biologically important because that fraction of lymphocytes (T-cells) which are the active rosettes are found to be deficient in tumor patients and virus infected individuals. Restoration of this deficiency should benefit the patient.

[3] = system: Herpes Simplex Virus Type I; test: inhibition of Herpes Simplex Virus replication; type: cell-based; details: read-out: % inhibition of viral growth

`Oc1ncnc2c1nc1n2CCS1` [NPT 16416, 3-hydroxy-7,8-dihydrothiazolo-[3,2e]-purine] was tested, and the “#Ig M plaques (x ± S.E.)” value ([1]; 0.05 mg/kg i.p.) was 39 ± 3.34, the “#Ig M plaques (x ± S.E.)” value ([1]; 0.5 mg/kg i.p.) was 35 ± 2.06 and the “#Ig M plaques (x ± S.E.)” value ([1]; 5.0 mg/kg i.p.) was 9 ± 0.37. For the same compound, the “effect on antibody production in vivo, in words” value ([1]; SRBC immunized mice) was “enhancement of production of specific antibodies in vivo”, the “% change from control, Ig M plaques” value ([1]; 0.05 mg/kg i.p.) was “+88%” and the “% change from control, Ig M plaques” value ([1]; 0.5 mg/kg i.p.) was “+66%”. The “% change from control, Ig M plaques” value ([1]; 5.0 mg/kg i.p.) was -58%, the “% change from control, antibody response to SRBC” value ([1]; 0.5 mg/kg) was “+66%” and the “% change from control, antibody response to SRBC” value ([1]; 5.0 mg/kg, NPT 16485 N.S.) was -80%. The “enhancement of antibody production to SRBC” value ([1]; mice, 0.05 mg/kg) was 88-226%, the “% E-rosettes (active)” value ([2]; 5 × 10^-5 M) was 43% and the “% E-rosettes (active)” value ([2]; 5 × 10^-7 M) was 55.5%. The “% E-rosettes (active)” value ([2]; 5 × 10^-8 M) was 62.5%, the “% E-rosettes (active)” value ([2]; 5 × 10^-9 M) was 58.5% and the “% E-rosettes (active)” value ([2]; 5 × 10^-10 M) was 42%. The activation at 50 µM ([2]; Homo sapiens, Lymphocyte, 5 × 10^-5 M, read-out: % increase of active E-rosettes) was 10%, the activation at 0.5 µM ([2]; Homo sapiens, Lymphocyte, 5 × 10^-7 M, read-out: % increase of active E-rosettes) was 23% and the activation at 0.05 µM ([2]; Homo sapiens, Lymphocyte, 5 × 10^-8 M, read-out: % increase of active E-rosettes) was 36.5%. It also gave an activation at 0.005 µM ([2]; Homo sapiens, Lymphocyte, 5 × 10^-9 M, read-out: % increase of active E-rosettes) of 34%, an activation at 0.0005 µM ([2]; Homo sapiens, Lymphocyte, 5 × 10^-10 M, read-out: % increase of active E-rosettes) of 7.6% and an inhibition at 37.5 µg/mL ([3]; 37.5 μg/ml) of 33%. It also gave an inhibition at 75 µg/mL ([3]; 75 μg/ml) of 61% and an inhibition at 150 µg/mL ([3]; 150 μg/ml) of 65%.
